Measured values taken from patent US8481495B2 (TetraLogic Pharmaceuticals Corporation, priority 2009, dated 2013).

How the values were obtained:
cIAP-1 BIR-3 = target: T1, cIAP-1 BIR-3 (Homo sapiens, UniProt Q13490); experiment: Fluorescence polarization binding to cIAP-1 BIR-3 with labeled peptide AbuRPF-K(5-Fam)-NH2; settings: cIAP-1 BIR-3, 40 nM BIR3, 5 nM labeled peptide, 15 min RT, pH 7.5; read-out: cIAP1, nM (binding affinity KD, as range)
T1 construct: 40 nM of the respective IAP BIR3
Method: (§1) The binding affinities of the compounds are reported as a KD value (μM). Briefly, various concentrations of test peptides were mixed with 5 nM of the fluorescently labeled peptide (i.e., a mutated N-terminal Smac peptide-AbuRPF-K(5-Fam)-NH2) and 40 nM of the respective IAP BIR3 for 15 min at RT in […] of 0.1M Potassium Phosphate buffer, pH 7.5 containing […] bovine g-globulin. Following incubation, the polarization values (mP) were measured on a Victor2V™ (available from PerkinElmer® Life Sciences) using a 485 nm excitation filter and a 520 nm emission filter. The reported binding affinities (KD values) are supplied as ranges (A=<0.1 μM, B=0.1 μM to 1 μM, C=>1 μM to 10 μM, D=>10 μM).

SK-OV-3 cells = experiment: MTT cell growth inhibition assay in ovarian cancer cell line SK-OV-3; format: cell-based; settings: Homo sapiens, 72 hrs incubation, read-out: SKOV3, nM (CC50, concentration giving 50% cell survival, as range)
Method: Compounds of the invention also were tested for their ability to inhibit the growth of an ovarian cancer cell line, SK-OV-3. A known assay previously used for measuring cell growth (as described in Hansen, M. B., Nielsen, S. E., and Berg, K. (1989) J. Immunol. Methods 119, 203-210 and incorporated herein by reference in its entirety) was used. Briefly, SK-OV-3 cells are seeded in 96-well plates in McCoy's medium containing 10% fetal bovine serum albumin (5,000 per well) and incubated overnight at 37° C. The next day, test compounds are added at various concentrations (0.003-10 μM) and the plates are incubated at 37° C. for an additional 72 hrs. This incubation time was considered to be optimal for measuring inhibitory effects of the different compounds tested. 50 microliters of 5 mg/mL MTT reagent is added to each well and the plates are incubated at 37° C. for another three (3) hours. At the end of the three (3) hour incubation period, 50 microliters of DMSO is added to each well to dissolve cells and the optical density (OD) of the wells is measured with a microplate reader (Victor^2 1420™, Wallac, Finland) at 535 nm. Cell survival (CS) was calculated using the following equation: CS=(OD treated well/mean OD control wells)×100%.
The CC50 (reported in the following tables), is defined as the drug concentration that results in 50% cell survival (CS), and is derived by calculating the point where the dose-response curve crosses the 50% CS point using GraphPad Prism® graphing software. The reported CC50 values are supplied as ranges (A=<0.1 μM, B=0.1 μM to 1 μM, C=>1 μM to 10 μM, D=>10 μM).

XIAP BIR-3 = target: T2, XIAP BIR-3 (Homo sapiens, UniProt P98170); experiment: Fluorescence polarization binding to XIAP BIR-3 with labeled peptide AbuRPF-K(5-Fam)-NH2; settings: XIAP BIR-3, 40 nM BIR3, 5 nM labeled peptide, 15 min RT, pH 7.5; read-out: XIAP, nM (binding affinity KD, as range)
T2 construct: 40 nM of the respective IAP BIR3
T2 sequence (P98170 241-356 limits assumed): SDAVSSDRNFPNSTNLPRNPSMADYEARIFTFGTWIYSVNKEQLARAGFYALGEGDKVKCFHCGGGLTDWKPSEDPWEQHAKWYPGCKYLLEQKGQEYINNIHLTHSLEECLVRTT
Method: as §1

T1 sequence (Q13490 253-363 limits assumed): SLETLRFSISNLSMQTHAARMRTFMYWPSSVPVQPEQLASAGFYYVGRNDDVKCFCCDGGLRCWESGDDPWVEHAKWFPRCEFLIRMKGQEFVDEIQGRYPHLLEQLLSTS

| Kd (cIAP-1 BIR-3) | Kd (XIAP BIR-3) | SMILES | CC50 (SK-OV-3 cells) |
| --- | --- | --- | --- |
| < 100 nM | < 100 nM | CN[C@@H](C)C(=O)N[C@H](C(=O)N1CC[C@@H]2[C@H]1[C@@H](C(=O)NCc1ccccc1)CN2S(C)(=O)=O)C(C)(C)C [Example 20, 4-[3,3-Dimethyl-2-(2-methylamino-propionylamino)-butyryl]-1-methanesulfonyl-octahydro-pyrrolo[3,2-b]pyrrole-3-carboxylic acid benzylamide] | < 100 nM |
| < 100 nM | 1000 to 10000 nM | CN[C@@H](C)C(=O)N[C@H](C(=O)N1CC[C@@H]2[C@H]1[C@@H](C(=O)N[C@H](C)C1CCCCC1)CN2S(C)(=O)=O)C(C)(C)C [Example 29, 4-[3,3-Dimethyl-2-(2-methylamino-propionylamino)-butyryl]-1-methanesulfonyl-octahydro-pyrrolo[3,2-b]pyrrole-3-carboxylic acid (1R-cyclohexyl-ethyl)-amide] | 1000 to 10000 nM |
| < 100 nM | 100 to 1000 nM | CN[C@@H](C)C(=O)N[C@H](C(=O)N1CC[C@@H]2[C@H]1[C@@H](C(=O)Nc1cccc3cccnc13)CN2S(C)(=O)=O)C(C)(C)C [Example 46, 4-[3,3-Dimethyl-2-(2-methylamino-propionylamino)-butyryl]-1-methanesulfonyl-octahydro-pyrrolo[3,2-b]pyrrole-3-carboxylic acid quinolin-8-ylamide] | < 100 nM |
| < 100 nM | 100 to 1000 nM | CN[C@@H](C)C(=O)N[C@H](C(=O)N1CC[C@@H]2[C@H]1[C@@H](C(=O)Nc1cccc3ccncc13)CN2S(C)(=O)=O)C(C)(C)C [Example 45, 4-[3,3-Dimethyl-2-(2-methylamino-propionylamino)-butyryl]-1-methanesulfonyl-octahydro-pyrrolo[3,2-b]pyrrole-3-carboxylic acid isoquinolin-8-ylamide] | 100 to 1000 nM |
| < 100 nM | 1000 to 10000 nM | CN[C@@H](C)C(=O)N[C@H](C(=O)N1CC[C@@H]2[C@H]1[C@@H](C(=O)NC1CCCCC1)CN2S(C)(=O)=O)C1CCCCC1 [Example 5, 4-[2-Cyclohexyl-2-(2-methylamino-propionylamino)-acetyl]-1-methanesulfonyl-octahydro-pyrrolo[3,2-b]pyrrole-3-carboxylic acid cyclohexylamide] | 1000 to 10000 nM |
| < 100 nM | < 100 nM | CN[C@@H](C)C(=O)N[C@H](C(=O)N1CC[C@@H]2[C@H]1[C@@H](C(=O)Nc1cc(C)nn1-c1ccccc1)CN2S(C)(=O)=O)C(C)(C)C [Example 26, 4-[3,3-Dimethyl-2-(2-methylamino-propionylamino)-butyryl]-1-methanesulfonyl-octahydro-pyrrolo[3,2-b]pyrrole-3-carboxylic acid (5-methyl-2-phenyl-2H-pyrazol-3-yl)-amide] | 100 to 1000 nM |
| < 100 nM | < 100 nM | CN[C@@H](C)C(=O)N[C@H](C(=O)N1CC[C@@H]2[C@H]1[C@@H](C(=O)N(C)Cc1ccccc1)CN2S(C)(=O)=O)C1CCCCC1 [Example 9, 4-[2-Cyclohexyl-2-(2-methylamino-propionylamino)-acetyl]-1-methanesulfonyl-octahydro-pyrrolo[3,2-b]pyrrole-3-carboxylic acid benzyl-methyl-amide] | 100 to 1000 nM |
| 100 to 1000 nM | 100 to 1000 nM | CN[C@@H](C)C(=O)N[C@H](C(=O)N1CC[C@@H]2[C@H]1[C@@H](C(=O)N[C@@H](Cc1ccccc1)C(=O)OC)CN2S(C)(=O)=O)C1CCCCC1 [Example 10, 2-({4-[2-Cyclohexyl-2-(2-methylamino-propionylamino)-acetyl]-1-methanesulfonyl-octahydro-pyrrolo[3,2-b]pyrrole-3-carbonyl}-amino)-3-phenyl-propionic acid methyl ester] | 1000 to 10000 nM |
| < 100 nM | < 100 nM | CN[C@@H](C)C(=O)N[C@H](C(=O)N1CC[C@@H]2[C@H]1[C@@H](C(=O)Nc1cccc3ccccc13)CN2S(C)(=O)=O)C(C)(C)C [Example 24, 4-[3,3-Dimethyl-2-(2-methylamino-propionylamino)-butyryl]-1-methanesulfonyl-octahydro-pyrrolo[3,2-b]pyrrole-3-carboxylic acid naphthalen-1-ylamide] | < 100 nM |
| < 100 nM | < 100 nM | CN[C@@H](C)C(=O)N[C@H](C(=O)N1CC[C@@H]2[C@H]1[C@@H](C(=O)NCc1ccccc1)CN2S(C)(=O)=O)C1CCCCC1 [Example 2, 4-[2-Cyclohexyl-2-(2-methylamino-propionylamino)-acetyl]-1-methanesulfonyl-octahydro-pyrrolo[3,2-b]pyrrole-3-carboxylic acid benzylamide] | < 100 nM |
| < 100 nM | < 100 nM | CN[C@@H](C)C(=O)N[C@H](C(=O)N1CC[C@@H]2[C@H]1[C@@H](C(=O)NCc1ccc(F)cc1)CN2S(C)(=O)=O)C(C)(C)C [Example 21, 4-[3,3-Dimethyl-2-(2-methylamino-propionylamino)-butyryl]-1-methanesulfonyl-octahydro-pyrrolo[3,2-b]pyrrole-3-carboxylic acid 4-fluoro-benzylamide] | < 100 nM |
| < 100 nM | 100 to 1000 nM | CN[C@@H](C)C(=O)N[C@H](C(=O)N1CC[C@@H]2[C@H]1[C@@H](C(=O)Nc1ccc3ccccc3n1)CN2S(C)(=O)=O)C(C)(C)C [Example 52, 4-[3,3-Dimethyl-2-(2-methylamino-propionylamino)-butyryl]-1-methanesulfonyl-octahydro-pyrrolo[3,2-b]pyrrole-3-carboxylic acid quinolin-2-ylamide] | < 100 nM |
| < 100 nM | 100 to 1000 nM | CN[C@@H](C)C(=O)N[C@H](C(=O)N1CC[C@H]2NC[C@H](C(=O)Nc3ccccc3)[C@H]21)C1CCCCC1 [Example 31] | 100 to 1000 nM |
| < 100 nM | 100 to 1000 nM | CN[C@@H](C)C(=O)N[C@H](C(=O)N1CC[C@@H]2[C@H]1[C@@H](C(=O)N[C@@H]1CCc3ccccc31)CN2S(C)(=O)=O)C1CCCCC1 [Example 14, 4-[2-Cyclohexyl-2-(2-methylamino-propionylamino)-acetyl]-1-methanesulfonyl-octahydro-pyrrolo[3,2-b]pyrrole-3-carboxylic acid indan-1-ylamide] | < 100 nM |
| < 100 nM | < 100 nM | CN[C@@H](C)C(=O)N[C@H](C(=O)N1CC[C@@H]2[C@H]1[C@@H](C(=O)N1Cc3ccccc3C1)CN2S(C)(=O)=O)C1CCCCC1 [Example 13, N-{1-Cyclohexyl-2-[6-(1,3-dihydro-isoindole-2-carbonyl)-4-methanesulfonyl-hexahydro-pyrrolo[3,2-b]pyrrol-1-yl]-2-oxo-ethyl}-2-methylamino-propionamide] | < 100 nM |
| < 100 nM | < 100 nM | CN[C@@H](C)C(=O)N[C@H](C(=O)N1CC[C@@H]2[C@H]1[C@@H](C(=O)NCC1CCCCC1)CN2S(C)(=O)=O)C1CCCCC1 [Example 19, 4-[2-Cyclohexyl-2-(2-methylamino-propionylamino)-acetyl]-1-methanesulfonyl-octahydro-pyrrolo[3,2-b]pyrrole-3-carboxylic acid cyclohexylmethyl-amide] | < 100 nM |
| < 100 nM | < 100 nM | CN[C@@H](C)C(=O)N[C@H](C(=O)N1CC[C@@H]2[C@H]1[C@@H](C(=O)Nc1ccccc1)CN2S(C)(=O)=O)C(C)(C)C [Example 22, 4-[3,3-Dimethyl-2-(2-methylamino-propionylamino)-butyryl]-1-methanesulfonyl-octahydro-pyrrolo[3,2-b]pyrrole-3-carboxylic acid phenylamide] | < 100 nM |
